Results as given in patent US20230114207A1, “THE COMBINATION OF CYCLIN DEPENDENT KINASE 7 INHIBITOR AND IMMUNOTHERAPY FOR TREATMENT OF CANCER” (Dana-Farber Cancer Institute, Inc., priority 2019, published 2023).

Tests used:
RPP631 and DMS79 cells = assay: Cell cycle analysis (propidium iodide flow cytometry); assay type: cell-based, mouse, human
Description: Cells were seeded in 6-well plates (0.5-1×10^6 cells/well) in media and treated with YKL-5-124 at indicated concentrations and time points. Cells were collected by centrifugation, washed in cold PBS and resuspended in 1 ml of 80% EtOH in PBS and stored overnight at −20° C. Cells were again collected by centrifugation and washed 3× with cold PBS. Hereafter cells were resuspended in PBS containing: 0.1% Triton X-100, 25 μg/ml Propidium Iodide (PI) and 0.2 mg/ml RNase A and incubated for 45 min at 37° C. After incubation, cells were placed at 4° C. until ready for analysis with flow cytometry. Cells were gated for PI staining and cell accumulation in G1, S and G2/M were calculated using ModFit LT software.

RPP631 cells = assay: EdU and MCM2 imaging by STORM; assay type: cell-based, mouse; settings: 100 nM, 48 and 72 hr
Description: RPP631 cells were incubated in the presence of 100 nM YKL-5-124 for 48-72 hr. EdU was pulsed during the last 30 minutes of YKL-5-124 treatment. Treated cells were pre-extracted using 0.5% Triton in CSK buffer (10 mM Hepes, 300 mM Sucrose, 100 mM NaCl, and 3 mM MgCl2, pH=7.6) for 10 minutes, and fixed with paraformaldehyde (4%) for 30 minutes. Cells were then rinsed 3 times with PBS and blocked (2% glycine, 2% BSA, 0.2% gelatin, and 50 mM NH4Cl in PBS) overnight at 4° C. for further staining. […]
STORM imaging was performed on a customized inverted microscope. […] Cell samples were sequentially illuminated with 639 and 750 laser lines and the emitted fluorescence was collected by the same objective with a 2× magnification tube lens (Diagnostic Instruments). The fluorescence was then filtered by single band filters (Semrock FF01-676/37 and FF02-809/81) switched in a filter wheel accordingly. […]
Each 2000-frame single-molecule image stack was submitted to a home-built software for precise single-molecule localization. […] The fitting accuracy was evaluated using Cramer-Rao Lower Bound (CRLB). Note that the patterned read-out noise of the sCMOS camera was calibrated before imaging. Such read-out noise for each pixel was approximated into a Gaussian distribution and convolved with the Poisson shot noise for MLE fitting. […] The number of fluorophores is proportional to the quantity of EdU and MCM2. […]

CDK7-Cyclin H complexes = assay: Competitive pulldown assay (Bio-THZ1), Cyclin H; assay type: cell-based, mouse, human; settings: SCLC cells (RPP631, DMS79) treated 6 hours
Description: Bio-THZ1 pulldown experiments followed by western blotting of enriched proteins was performed as described in Kwiatkowski, et al., Nature, 2014, 511, 616-620. Briefly, cells were treated with YKL-5-124 or DMSO for 6 hr (in vitro) or 72 hr (in vivo). Following treatment, cells were washed twice with cold PBS and then lysed in the following lysis buffer: 50 mM TrisHCI pH 8.0, 150 mM NaCl, 1% NP-40, 5 mM EDTA, 1 mM DTT, and protease/phosphatase cocktails. Following clearance, lysates were treated with biotinylated THZ1 for pulldown overnight at 4° C. Lysates were further incubated at room temperature for 3 hr to increase the efficiency of covalent bond formation. Lysates were then incubated with streptavidin agarose for pulldown for an additional 2-3 hr at 4° C. Agarose beads were washed 5 times with lysis buffer and then boiled in 2×SDS at 95° C. SDS-page resolved precipitated proteins were probed for the indicated proteins.

[1] = tested on: Tnf, Cxcl10 and Cxcl9 in RPP631; assay: RT-qPCR of Tnf, Cxcl10 and Cxcl9; assay type: cell-based, mouse; settings: after 48 hr
Description: Cell pellets were collected and then subjected to total RNA extraction using RNeasy Plus Mini Kit (QIAGEN, Cat #74136) according to the manufacturer's instructions, or using TRIzol:Chloroform phase-separation by centrifugation followed by RNA precipitation using isopropanol. The extracted RNA was reversely transcribed into cDNA using the High-Capacity RNA-to-cDNA™ Kit (Thermo Fisher Scientific, Cat #4387406) according to the manufacturer's instructions. The obtained cDNA samples were diluted and used for RT-qPCR. PowerUp™ SYBR™ Green Master Mix (Thermo Fisher Scientific, Cat #A25742) or TaqMan Gene Expression Master Mix (Life Technologies, Cat #4369514). Gene specific primers with sequences listed in Table 3 were used for PCR amplification and detection on the StepOnePlus™ Real-Time PCR System (Thermo Fisher Scientific). RT-qPCR data were normalized to Actb (mouse cells) or GUSB (human cells) and presented as fold changes of gene expression in the test sample compared to the control.

In the case of `C=CC(=O)Nc1ccc(C(=O)Nc2n[nH]c3c2CN(C(=O)N[C@H](CN(C)C)c2ccccc2)C3(C)C)cc1` [YKL-5-124], the “cells in G1 phase” value (RPP631 and DMS79 cells; 72 hours) is reported as “significant accumulation”, the “cells in S phase” value (RPP631 and DMS79 cells; 72 hours) is reported as “corresponding loss” and the “percentage of cells in G2/M phase” value (RPP631 and DMS79 cells; concentrations up to 500 nM) is reported as “not significantly changed”. The “EdU content in each nucleus and in each focus” value (RPP631 cells) was “dramatic decrease”, the “MCM2 content in each nucleus and replication focus” value (RPP631 cells) was “significant decline” and the “block of Cyclin H pulldown” value (CDK7-Cyclin H complexes) was “efficiently prevented”. The “tumor cell expression of Tnf, Cxcl10 and Cxcl9” value [1] was “significantly stimulated”.
